Measured values taken from PMC4872784 (Oncotarget, 2016).

Assays:
KOPN8 cells = assay: alamarBlue cytotoxicity assay, 48h; type: cell-based, human; conditions: RPMI + 10% FBS
Method: (§1) Following subtraction of background fluorescence from all wells, fluorescence of drug-treated cells was normalized to that of vehicle (<0.5% DMSO)-treated cells to determine the effect of each drug concentration on viability. Each cell line was tested in triplicate and in at least three independent experiments. IC50 (concentration that inhibits cell growth by 50%) values were calculated using CompuSyn software (ComboSyn, Paramus, NJ). […] In addition several cell lines were initially cultured and tested in alternative media (Supplementary Table S2). […] Colony counts were normalized to vehicle-treated controls (100%). Three independent experiments were performed.
(§2) In most experiments, cytotoxicity was assessed using alamarBlue assays (Life Technologies, Grand Island, NY). In experiments using NAC and DFO, which can interfere with alamarBlue assay performance, Trypan Blue dye exclusion was used instead. […]
(§3) experiments performed in triplicate. […] Age refers to age […]
(§4) at the time of leukemia diagnosis of the patient from whom the cell line was derived. (–) Indicates information unavailable.
(§5) *Cell lines with FLT3/ITD mutations.
(§6) *The MV-4–11 cell line was derived from a patient with a biphenotypic B-myelomonocytic leukemia; K562 was derived […]
(§7) 1A. p53 status was obtained from http://cancer.sanger.ac.uk/cell_lines/cbrowse/all and http://p53.free.fr/Database/Cancer_ cell_lines/Leukemia_cancer. html. WT: wild type. Mut: mutant. SM: single mutation. DM: double mutation. MM: multiple mutations. Fs: Frameshift mutation. Null: protein expression undetectable. […]
(§8) measured via alamarBlue assay. […]

MOLM14 cells [1] = assay: alamarBlue cytotoxicity assay, 48h; type: cell-based, human; conditions: for IC50: MOLM14 (AML), 48h, RPMI + 10% FBS
Method: as §1, §2, §3, §4, §5, §6, §7, §8

HL-60 cells = assay: clonogenicity (colony formation in semi-solid medium); type: cell-based, human; conditions: 24h pretreatment
Method: (§9) page 2: Supplementary Figure S3: […] hours. Two B-ALL (KOPN8, SEM) and two AML (MOLM14, THP-1) cell lines were treated with the indicated concentrations of ART- 838 or AS for 24–96 h, then viability determined as in Figure 1A. Data are represented as mean +/– SD. Supplementary Figure S4: […] Colony-forming assays were performed as in Figure 1B in A. K562 and B. HL-60 AML cell lines. Each experiment was performed once in triplicate. Data are represented as mean +/– SD.

K562 cells = assay: as above; type: cell-based, human; conditions: 24h pretreatment
Method: as §9

MOLM14 cells [2] = assay: total ROS generation (CM-H2DCFDA flow cytometry); type: cell-based, human; conditions: 16h
Method: (§10) A. Quantification of the percentage of early apoptotic cells (Annexin-V+/7-AAD-) from three independent experiments in which cells were stained for apoptosis with 7-AAD and Annexin-V then analyzed by flow cytometry. […] C. […] 16h after addition of drugs, cells were washed and analyzed by flow cytometry for CM-H2DCFDA fluorescence (indicating total ROS generation) in the FL1 channel. Mean Fluorescence Intensity (MFI) was normalized to that of vehicle control (0.5% DMSO) with no pretreatment. […] Viable cell counts, obtained via Trypan Blue dye exclusion, were normalized to vehicle (0.02% DMSO)-treated samples +/– pretreatment.
Cells were preloaded with 5 μM 5-(and-6)-chloromethyl-2′,7′-dichlorodihydrofluorescein diacetate (CM-H2DCFDA, Life Technologies) in PBS (30min, 37°C), then washed before drug treatment. Following 16h incubation with drugs, cells were analyzed by flow cytometry.

MOLM14 cells [3] = assay: viable cell counts via Trypan Blue dye exclusion, 48h; type: cell-based, human
Method: as §10
In most experiments, cytotoxicity was assessed using alamarBlue assays (Life Technologies, Grand Island, NY). In experiments using NAC and DFO, which can interfere with alamarBlue assay performance, Trypan Blue dye exclusion was used instead.

NSG mice = assay: tolerability / maximum-tolerated dose
Method: Blood samples were collected via
retro-orbital bleeding into EDTA-coated tubes from MOLM14 NSG mice 1 day A-D. and 7 days E-H. after completion of a 5-day drug
CBCs were determined using a Hemavet 950 analyzer.
Normal blood samples were obtained from normal, untreated NSG mice (n = 37) over several years.

MOLM14 xenograft = assay: subcutaneous MOLM14 AML xenograft; conditions: for average tumor mass less than vehicle-treated tumors: day 21
Method: CBCs were performed on day 23 (Supplementary Figure S8). Mice were euthanized when tumors reached an estimated 2000mg. […] B. Percent of Day 0 body weight. […] C. Kaplan-Meier survival analysis. […] D. Percent of Day 0 body weight.

MOLM14 or KOPN8 cells = assay: drug combinations, alamarBlue 48h, combination indices; conditions: for effect of addition on cytotoxicity of ARA, DOX, ETO, MID, LES, SOR: equipotency ratio based on IC50s, 48h
Method: Supplementary Figure S10: Drug combinations against MOLM14. MOLM14 cells were treated with a range of concentrations
experiment was performed three times in triplicate, and error bars represent the SEM.
Combination indices (CI) were computed for each drug combination using CompuSyn software, based on the Median Effect
Principle and the CI theorem of Chou-Talalay, wherein CI = 1 indicates additivity, CI < 1 synergism, and CI > 1 antagonism. Data are
Supplementary Figure S11: Drug combinations against KOPN8. KOPN8 cells were treated with a range of concentrations
Each experiment was performed at least three times in triplicate, and error bars represent the SEM.

primary B-ALL case #109 = assay: intravenous B-ALL primagraft model
Method: Mice were weighed weekly and tumors measured at least twice weekly. […] Mice were euthanized when tumors reached an estimated 2000mg. […] Mice were weighed weekly and observed daily for clinical signs of severe leukemia.
Highly immunodeficient NSG mice, obtained originally from Jackson Laboratory (Bar Harbor, ME), were bred and housed in the UMSOM animal facilities, and handled in a laminar flow hood under aseptic conditions. All experiment procedures and animal care were in compliance with the NIH guidelines for the Care and Use of Laboratory Animals and approved by the UMSOM Institutional Animal Care and Use Committee. Drugs were formulated in Tween 80:ethanol (7:3, v:v) and diluted 1:10 in filtered deionized water immediately before administration. […] Mice were monitored daily and euthanized when tumors reached an estimated mass of 2000mg (using the formula: [length x width^2]/2, assuming density = 1 mg/mm^3) [56]. […] Mice were euthanized for clinical signs of severe leukemia or other severe distress [52].
Mice were weighed weekly and observed daily for clinical signs of severe

[4] = four 5-day cycles ART-838 40 mg/kg/d
[5] = four 5-day cycles AS 150 mg/kg/d

C[C@@H]1CCC2[C@@H](C)[C@@H](CC(COP(=O)(Oc3ccccc3)Oc3ccccc3)C[C@H]3O[C@@H]4O[C@@]5(C)CCC6[C@H](C)CCC([C@H]3C)[C@]64OO5)O[C@@H]3O[C@@]4(C)CCC1[C@@]23OO4 (some centres unmarked) [ART-838, artemisinin-derived trioxane diphenylphosphate dimer 838]
IC50 (KOPN8 cells; KOPN8 (B-ALL)): 12 ± 2 nM
IC90 (MOLM14 cells [1]; MOLM14): 100 nM
IC50 (MOLM14 cells [1]): 25 nM
growth inhibition by 48h (MOLM14 cells [1]; MOLM14, 0.1 μM ART-838, alamarBlue): 90-99%
clonogenicity (HL-60 cells): reduced clonogenicity
clonogenicity (K562 cells): reduced clonogenicity
total cellular ROS levels (MOLM14 cells [2]; ART-838 0.1 μM): significantly increased total cellular ROS levels
fold resistance to growth inhibition after DFO pretreatment (MOLM14 cells [3]; MOLM14, DFO 11 μM pretreatment): 3 fold
fold resistance to growth inhibition after NAC pretreatment (MOLM14 cells [3]; MOLM14, NAC 25 μM pretreatment): not increased
chronic MTD (NSG mice; 5 days/week by oral gavage, NSG mice): 40 to 50 mg/kg
dose-limiting toxicity (NSG mice; NSG mice, oral gavage): acute weight loss
clinical neurotoxicity (NSG mice; NSG mice, prior toxicity experiments at approximate chronic MTD): no clinical neurotoxicity was observed
complete and differential blood cell counts (NSG mice; normal NSG mice, 5-day cycle ART-838 50 mg/kg/d, days 6 and 12): normal complete and differential blood cell counts
single dose MTD (NSG mice; oral gavage, NSG mice): 500 to 600 mg/kg
average tumor mass less than vehicle-treated tumors (MOLM14 xenograft; two 5-day cycles ART-838 50 mg/kg/d oral gavage): 83%
complete and differential blood cell counts (MOLM14 xenograft; tumor-bearing NSG mice, day 23, after two 5-day cycles ART-838 50 mg/kg/d): within the normal range
interaction with kinase inhibitors MID, LES, SOR (MOLM14 or KOPN8 cells; combination indices): combined synergistically with all three kinase inhibitors
effect of addition on cytotoxicity of ARA, DOX, ETO, MID, LES, SOR (MOLM14 or KOPN8 cells): enhanced the cytotoxicity of all six tested drugs
body weight loss following treatment (primary B-ALL case #109; [4]): No dose-limiting body weight loss
extension of mean survival time (primary B-ALL case #109; [4]): 20 days
prolongation of mean survival time (primary B-ALL case #109; [4]): 55%
Mean time to severe clinical signs of leukemia (surrogate for survival) (primary B-ALL case #109; four 5-day cycles ART-838 40 mg/kg/d oral gavage, vehicle 37): 57
Mean time to severe clinical signs of leukemia (surrogate for survival) (primary B-ALL case #109; second experiment: two 5-day cycles ART-838 50 mg/kg/d, days 1 and 29, vehicle 28): 47

C[C@H]1[C@H](OC(=O)CCC(=O)O)O[C@@H]2O[C@@]3(C)CC[C@H]4[C@H](C)CC[C@@H]1[C@@]24OO3 [AS, artesunate]
IC50 (KOPN8 cells; Homo sapiens, KOPN-8, KOPN8 (B-ALL)): 459 ± 49 nM
inhibition at 5 µM (MOLM14 cells [1]; Homo sapiens, MOLM-14, 48 h, MOLM14, 5 μM AS, alamarBlue, read-out: growth inhibition by 48h): 90 to 99%
IC90 (MOLM14 cells [1]; Homo sapiens, MOLM-14, MOLM14): 5000 nM
IC50 (MOLM14 cells [1]; Homo sapiens, MOLM-14): 825 nM
clonogenicity (HL-60 cells): reduced clonogenicity
clonogenicity (K562 cells): reduced clonogenicity
total cellular ROS levels (MOLM14 cells [2]; AS 5 μM): significantly increased total cellular ROS levels
IC50 (MOLM14 cells [3]; Homo sapiens, MOLM-14, MOLM14, 48h, Pre-Treatment: CTRL, unit inferred, read-out: IC50): 885 ± 57 nM
clinical neurotoxicity (NSG mice; mouse, in vivo): no clinical neurotoxicity was observed
dose-limiting toxicity (NSG mice; mouse, in vivo, po): acute weight loss
average tumor mass less than vehicle-treated tumors (MOLM14 xenograft; two 5-day cycles AS 200 mg/kg/d oral gavage): 44%
interaction with SOR (MOLM14 or KOPN8 cells; combination indices): additive effects
effect of addition on cytotoxicity of ARA, DOX, ETO, MID, LES, SOR (MOLM14 or KOPN8 cells): enhanced the cytotoxicity of all six tested drugs
body weight loss following treatment (primary B-ALL case #109; [5]): No dose-limiting body weight loss
extension of mean survival time (primary B-ALL case #109; [5]): 19 days
prolongation of mean survival time (primary B-ALL case #109; [5]): 51%
Mean time to severe clinical signs of leukemia (surrogate for survival) (primary B-ALL case #109; four 5-day cycles AS 150 mg/kg/d oral gavage, vehicle 37): 56
Mean time to severe clinical signs of leukemia (surrogate for survival) (primary B-ALL case #109; second experiment: two 5-day cycles AS 200 mg/kg/d, days 1 and 29, vehicle 28): 43
